US8394971B2, “Indole derivatives as selective androgen receptor modulators (SARMS)” (Janssen Pharmaceutica N.V., priority 2004, dated 2013)
Where “and” joins values, the source holds several entries; their conditions need not be identical. Equal values may be shown once.

Legend:
[1] = biological target: T1, androgen receptor (adenovirus AdEasy+rAR in L929 cells) (Rattus norvegicus, UniProt P15207); test: L929 Androgen Receptor Functional Assay, Adenovirus Transduction; assay type: cell-based; conditions: for % Activity: L929 agonist testing
T1 construct: expressed in transfected cells
T1 sequence (P15207 1-902): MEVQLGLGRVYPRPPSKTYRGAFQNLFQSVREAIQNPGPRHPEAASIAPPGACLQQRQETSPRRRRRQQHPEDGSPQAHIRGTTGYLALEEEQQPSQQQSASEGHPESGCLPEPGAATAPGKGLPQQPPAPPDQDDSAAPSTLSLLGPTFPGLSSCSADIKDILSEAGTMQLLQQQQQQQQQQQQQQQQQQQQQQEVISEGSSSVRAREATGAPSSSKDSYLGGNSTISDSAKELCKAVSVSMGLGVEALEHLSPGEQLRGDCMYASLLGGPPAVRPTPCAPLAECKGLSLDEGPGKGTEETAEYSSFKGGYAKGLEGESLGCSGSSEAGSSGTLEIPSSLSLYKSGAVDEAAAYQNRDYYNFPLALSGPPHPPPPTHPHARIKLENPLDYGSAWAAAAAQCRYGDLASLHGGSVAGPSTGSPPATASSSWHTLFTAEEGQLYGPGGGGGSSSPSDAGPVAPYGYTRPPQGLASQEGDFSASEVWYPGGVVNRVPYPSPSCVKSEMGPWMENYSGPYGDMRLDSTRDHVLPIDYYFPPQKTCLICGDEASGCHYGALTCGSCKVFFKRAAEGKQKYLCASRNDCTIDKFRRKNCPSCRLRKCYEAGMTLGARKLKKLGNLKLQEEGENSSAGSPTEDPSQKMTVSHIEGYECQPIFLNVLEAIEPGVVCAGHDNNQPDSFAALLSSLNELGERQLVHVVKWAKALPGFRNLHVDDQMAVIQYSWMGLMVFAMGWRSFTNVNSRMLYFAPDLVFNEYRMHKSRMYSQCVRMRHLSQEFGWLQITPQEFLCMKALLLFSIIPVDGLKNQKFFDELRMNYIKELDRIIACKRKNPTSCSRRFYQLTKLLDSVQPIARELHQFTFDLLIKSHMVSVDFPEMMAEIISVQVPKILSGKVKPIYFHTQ
Experimental: L929 cells were plated in 96-well plates at 20,000 cells per well, in DMEM/F12 (GIBCO) containing 10% (v/v) charcoal-treated fetal bovine serum (Hyclone) and lacking phenol red. The plates were then incubated overnight at 37° C. in 5% (v/v) humidified CO2.
Test compound dilutions were prepared in 100% (v/v) DMSO, if necessary. Each dilution was made to 1250× the final desired assay concentration.
First, 2 mL of DMEM/F12 lacking phenol red was pipetted into the wells of a 2-mL 96-well assay block. Next, 4 μL of the 1250× test compound dilutions were pipetted into each well of the assay block. The mixtures within the well were then carefully mixed by pipette.
In a 15 mL or 50 mL sterile centrifuge tube, a 2.5 nM (2.5×) dilution of R1881 (methyl-trienolone) in DMEM/F12 lacking phenol red was prepared.
In a second 15 mL or 50 mL centrifuge tube a solution containing an equal volume of DMEM to the first and an equal volume of 100% (v/v) DMSO to the volume of R1881 used in the first tube was prepared.
In a 15 mL or 50 mL sterile centrifuge tube, a dilution in DMEM/F12 of the adenovirus AdEasy+rAR at an moi of 1:500 per well was prepared.
The medium was removed from the 96-well plates by inversion and dried, inverted, very briefly. As soon as possible after medium removal, 40 μL of the diluted unlabeled test compound was added to each well, in duplicate. To each well designated for antagonist testing was added 40 μL of the 2.5 nM R1881 dilution to the wells for antagonist testing. To each well designated for agonist testing was added 40 μL of the DMSO dilution. Then 20 μL of the diluted adenovirus were added to all wells. The plates were incubated for 48 hours at 37° C. in 5% (v/v) humidified CO2.
To each well was added 100 μL of Steady-Glo luciferase assay substrate (Promega) and the plates were placed on a rotary shaker for 1 min. The plates were then incubated at room temperature in the dark for one hour. The contents of each well were then transferred to a white microtiter plate (Packard) and read on a Luminoskan Ascent (Thermo Lab Systems).
L929 AR percent activity was determined by testing dilutions of the test compound using a concentration of 3000 nM unless otherwise noted. L929 percent inhibition was determined by testing dilutions of the test compound using a concentration of 3000 nM. […] Luciferase activity per well were measured and EC50s and IC50s determined by linear regression.

[2] = system: testosterone-enhanced ventral prostate and seminal vesicle weights in castrated male Sprague Dawley rats; test: Ventral Prostate and Seminal Vesicle Weight In Vivo Assay; set-up: species or system rat; conditions: immature castrated rats; once daily for five days, usually orally at 40 mg/kg, with testosterone propionate 2 mg/kg s.c.
Experimental: Immature (approximately 50 g) castrated male Sprague Dawley rats (Charles River) were treated once daily for five days with test compound (usually given orally at 40 mg/kg in a volume of 0.3 mL, in 30% cyclodextrin or 0.5% methylcellulose vehicle) and with testosterone propionate (given subcutaneously by injection at the nape of the neck at 2 mg/kg, in a volume of 0.1 mL in sesame oil). On the sixth day, the rats were euthanized by asphyxiation in carbon dioxide. Ventral prostates and seminal vesicles were removed and their wet weights determined.
A test compound was said to be “active” if the non weight adjusted prostate weight was ≦40 mg or the % Inhibition prostate weight, body weight adjusted was ≧40% @2 mg/day dosage.

[3] = biological target: T2, androgen receptor (adenovirus AdEasy+rAR in COS-7 cells) (Rattus norvegicus, UniProt P15207); test: COS-7 Whole-Cell Androgen Receptor Binding Assay, Adenovirus Transduction
T2 construct: expressed in transfected cells
T2 sequence (P15207 1-902): T1 sequence (P15207 1-902)
Experimental: COS-7 cells were plated in 96-well plates at 20,000 cells per well, in a solution of DMEM/F12 (GIBCO) containing 10% (v/v) charcoal-treated fetal bovine serum (Hyclone) and lacking phenol red. The cells were then incubated overnight at 37° C. in 5% (v/v) humidified CO2.
Test compound solutions were prepared by diluting the test compound in 100% (v/v) DMSO, if necessary.
Next, 1 mL of DMEM/F12 lacking phenol red was pipetted into each of the wells of a 2-mL 96-well assay block. […] The wells were carefully mixed by pipette.
In a 15 mL or 50 mL sterile centrifuge tube, a dilution in DMEM/F12 of the adenovirus AdEasy+rAR at a moi of 1:50 per well was prepared.
The medium was removed from the 96-well plates by inversion and the plates dried very briefly, inverted, on a sterile towel. As soon as possible after medium removal, 40 μL of the diluted test compound was added to each well, in duplicate. […] The plates were then incubated for 48 hours at 37° C. in 5% (v/v) humidified CO2.
The medium was removed from the above incubated plates by inversion and dried. Each well was then washed with 0.35 mL of 1×PBS. The PBS was then removed from the plates by inversion and the plates dried.
To each well was then added 50 μL of 0.5% (v/v) Triton X-100 (Sigma) in 1×PBS and the plates placed on a rotary shaker for 5 min. The contents of each well were then transferred to an OptiPlate-96 (Packard) scintillation plate. To each well was then added 0.2 mL of Microscint-20 (Packard) and the wells counted on a TopCount (Packard).
[…] Counts per well were measured and percents of inhibition determined. […] Counts per well were measured and IC50s determined by linear regression.

[4] = COS binding, 3000 nM unless otherwise noted

Row | Compound | % Activity ([1]; 3000 nM) [%] | active / inactive (inhibition of testosterone-enhanced prostate weight) [2] | also measured
1 | CC[S+]([O-])CC(O)c1cc2cc([N+](=O)[O-])c(C(F)(F)F)cc2[nH]1 (mixture of isomers) [compound 180] | 2 | inactive | –
2 | CC[S+]([O-])CC(C)(O)c1cc2cc(C(F)(F)F)c([N+](=O)[O-])cc2[nH]1 (mixture of isomers) [compound 230] | 0 | active | –
3 | CSCCC(C)(O)c1cc2cc(Cl)c(C(F)(F)F)cc2[nH]1 (racemic) [compound 51] | 2 | inactive | –
4 | CC(O)(CSc1ccc(N)cc1)c1cc2cc(Cl)c(C(F)(F)F)cc2n1S(C)(=O)=O (racemic) [compound 125] | −5 | – | –
5 | CCCSCC(C)(O)c1cc2cc(Cl)c(C(F)(F)F)cc2[nH]1 (racemic) [compound 196] | 13 | inactive | –
6 | CC(O)(CSCc1ccco1)c1cc2cc([N+](=O)[O-])c(C(F)(F)F)cc2[nH]1 (racemic) [compound 198] | 7 | inactive | –
7 | CC(O)(CS(=O)(=O)CC(F)(F)F)c1cc2cc([N+](=O)[O-])c(C(F)(F)F)cc2[nH]1 (racemic) [compound 208] | 1 | active | –
8 | CC(O)(CSCC(F)(F)F)c1cc2cc(C#N)c(C(F)(F)F)cc2[nH]1 (racemic) [compound 211] | −1 | – | –
9 | CCSCC(C)(O)c1[nH]c2cc(C(F)(F)F)c([N+](=O)[O-])cc2c1C (racemic) [compound 221] | −1 | inactive | –
10 | CCS(=O)(=O)CC(C)(O)c1cc2cc(C#N)c(C(F)(F)F)cc2n1C (racemic) [compound 240] | 0 | inactive | –
11 | CCS(=O)(=O)CC(C)(O)c1[nH]c2cc(C(F)(F)F)c(C#N)cc2c1C (racemic) [compound 246] | – | – | inhibition at 3 µM [3, 4]: 70%
12 | CSC(C)(O)c1cc2cc([N+](=O)[O-])c(C(F)(F)F)cc2[nH]1 (racemic) [compound 267] | – | inactive | % Activity ([1]; 3000 nM, 3 µM): −5% and 0%
13 | CSCC(C)(O)c1cc2cc([N+](=O)[O-])c(C(F)(F)F)cc2[nH]1 (single isomer, unassigned) [compound 144] | – | – | % Activity ([1]; 3000 nM, 3 µM): 0%
14 | CCSCC(C)(O)c1[nH]c2cc(C(F)(F)F)c([N+](=O)[O-])cc2c1C#N (single isomer, unassigned) [compound 247] | – | inactive | % Inhibition [3, 4]: 90%
15 | CCSCC(C)(O)c1cc2cc(C#N)c(C(F)(F)F)cc2[nH]1 (centres unmarked) [Compound #218, 2-(2-Ethylsulfanyl-1-hydroxy-1-methyl-ethyl)-6-trifluoromethyl-1H-indole-5-carbonitrile] | 0 | inactive | –
16 | CCSCC(O)(CC)c1cc2cc(C#N)c(C(F)(F)F)cc2[nH]1 (centres unmarked) [Compound #223] | – | active | % Activity ([1]; @ 8000 nM): 0 @ 8000 nM %
17 | O=[N+]([O-])c1cc2cc(C3(O)CCSCC3)[nH]c2cc1C(F)(F)F [compound 17] | – | inactive | IC50 [3]: > 1.5 µM
18 | CC(O)(CSc1ccccc1N)c1cc2cc(Cl)c(C(F)(F)F)cc2[nH]1 (centres unmarked) [compound 123] | −4 | inactive | % Activity ([1]; @ 8000 nM): 1 @ 8000 nM %
19 | CN(C)c1ccc(SCC(C)(O)c2cc3cc(Cl)c(C(F)(F)F)cc3[nH]2)cc1 (centres unmarked) [compound 124] | −4 | inactive | –
20 | CCSCC(C)(O)c1cc2cc(Cl)c(C(F)(F)F)cc2[nH]1 (centres unmarked) [compound 152] | – | inactive | inhibition at 3 µM [3, 4]: 39%
21 | CC(O)(CS(=O)(=O)CC(F)(F)F)c1[nH]c2cc([N+](=O)[O-])c(C(F)(F)F)cc2c1Cl (centres unmarked) [compound 207] | – | active | % Activity ([1]; 3000 nM, 3 µM): 1% and −1%
22 | CCSCC(C)(O)c1[nH]c2cc(C(F)(F)F)c(C#N)cc2c1C (centres unmarked) [compound 219] | – | inactive | % Activity ([1]; 3000 nM, 3 µM): −3%
23 | CCSCC(C)(O)c1[nH]c2cc(C(F)(F)F)c(Br)cc2c1C (centres unmarked) [compound 220] | −3 | inactive | inhibition at 3 µM ([1]; L929, L929 antagonist testing with R1881, 3000 nM): 103%
